The test system of test [1] is erythema produced by an ultra-violet light source on guinea pig skin. As to the kind of experiment: Anti-inflammatory: block of UV-light-induced erythema on guinea pig skin (method of Windner et al.). In kind it is in vivo, albino guinea pigs. As to conditions: oral; for Inhibition at 50 mg/kg dose: percent inhibition of erythema at 50 mg/kg where an ED50 was not determined; for ED50: Cavia porcellus, dose producing 50 percent inhibition of the erythemic response, groups of four guinea pigs. The method, then: The compounds of this invention are anti-inflammatory and anti-thrombotic agents. […] Int. Pharmacodyn, 116, 261 (1958). In this procedure, albino quinea pigs weighing 225- 300 gms. are shaved on the back and chemically depilated 18 to 20 hours before initiation of the test procedures. Animals in groups of 4 are given predetermined dosages of the drug under test with one group being maintained as a control group. The drug is administered by the oral route as a suspension in 1 percent aqueous sodium carboxymethylcellulose. The control animals receive only the suspending median. After having being given the drug or suspension medium only, each group of animals is exposed to a high-intensity ultra-violet light for a predetermined period of time, the ultra-violet light being placed in contact with the depilated skin area on the animals' back. A gummed paper reinforcement is affixed to the lamp lens to provide an unexposed area of contrast for grading the light-produced erythema.
Beginning one hour after exposure and thereafter at half-hour intervals for another 1.5 hours, a trained observer grades erythema using an arbitraty scoring system based upon the degree of contrast and redness formed. […] The following scoring system is used: […]
______________________________________
Score Appearance of Exposed Area
0 No redness and no contrast
1 Slight redness with a faint
2 Slight to moderate redness
with a distinct outline
3 Marked redness with a distinct
Total scores from each treatment group of four guinea pigs are compared to the control treatment, and the percent inhibition calculated as follows: [formula]
If desired, a dose-response graph can be obtained by plotting dose versus percent inhibition, each point representing the average of one treatment group of four guinea pigs. The dose (ED50) in mg/kg cm.^2) which produced a 50 percent inhibition of the erythemic response for the particular compound tested can then be obtained, either directly or by extrapolation. Table I below summarizes the results obtained from testing representative compounds of the invention by the foregoing method.

In test [2] the test system is collagen-induced platelet aggregation. As to the kind of experiment: Platelet aggregation test: collagen-induced platelet aggregation after oral dosing (method of Hermann et al.). To be noted: Cavia porcellus, 1 h, 2 doses, time zero and 2 hours later, blood 60 minutes after last dose, active = about 50% inhibition of collagen-induced aggregation, N.A. = not active at 100 mg/kg × 2, read-out: P.A. (lowest active dose in the platelet aggregation test). In kind it is in vivo, guinea pigs. The method, then: Certain of the compounds of this invention are also platelet aggregation inhibitors and the results of testing for this activity are also included in Table I. The platelet aggregation test used involves the effect of a drug upon collagen-induced platelet aggregation using the method of Hermann et al., Proc. Soc. Exp. Biol. Med. 136, 548 (1972). According to this procedure, 300- 400 g. guinea pigs are used and the compound is administered by the oral route in 2 doses, at time zero and again 2 hours later, at a series of graded dose levels to groups of 4 pigs each. One group is maintained as a control group. Blood is removed by heart puncture 60 minutes after the last dose, and a platelet-rich plasma prepared therefrom. A stock collagen solution is prepared by solubilizing bovine Achilles tendon with acetic acid. The stock solution contains 0.25 percent collagen, has a pH of 2.8 and is kept under refrigeration. Prior to use, 0.4 ml. of 1M aqueous sodium hydroxide is added to a 1 ml. aliquot of the stock solution, followed by further dilutions with saline (1:2 1:4, 1:8, 1:16, 1:32, etc.) A standard collagen challenge was used, 0.05 ml. of 1:45 dilution, to induce platelet aggregation and the aggregation response of the drugged guinea pigs was compared to that of the controls to determine inhibition of aggregation. The lowest active dose in mg./kg. × 2 is then determined, "active" being defined as giving about 50% inhibition of collagen-induced aggregation. (Activity was determined by computor printout with significance at the 95 percent confidence level being attained at about the 50 percent inhibition level). In Table 1, column 1 gives the name of the compound, column 2, the ED50 calculated as set forth above and column 3, the percent inhibition at a 50 mg/kg dose level where an ED50 was not determined and column 4, the lowest active dose in the platelet aggregation test. N. A. indicates "not active" at 100 mg/kg × 2 in this latter test.

Each structure is given as a SMILES string.

The term Inhibition denotes the relative decrease from the control value, in per cent. In the case of `Cc1cc2c3c(c1)C(c1ccccc1)C(=O)N3CC(=O)N2` (centres unmarked) [6-phenyl-8-methyl-1H-pyrrolo[1,2,3-de]quinoxalin-2,5(3H,6H)-dione], the “Inhibition at 50 mg/kg dose” value in test [1] is reported as 51%. For the same compound, the minimal effective dose in test [2] was determined as 3.12 mg/kg.

For orientation: ED50 means the dose that gives a 50% effect, or the effect in half of the subjects. As for `CC1C(=O)Nc2cccc3c2N1C(=O)C3c1ccccc1` (centres unmarked) [6-phenyl-3-methyl-1H-pyrrolo 1,2,3-de]quinoxalin-2,5(3H,6H)-dione], the ED50 in test [1] worked out at 2.5 mg/kg. In addition, the minimal effective dose in test [2] was 1.56 mg/kg.

The compound `O=C1CN2C(=O)C(c3ccccc3)(c3ccccc3)c3cccc(c32)N1` [6,6-diphenyl-1H-pyrrolo-[1,2,3-de]quinoxalin-2,5 (3H,6H)-dione] yielded a median effective dose (ED50) in test [1] of 36 mg/kg.

In turn, `O=C1CN2C(=O)C(c3ccccc3)c3cccc(c32)N1` (centres unmarked) [6-phenyl-1H-pyrrolo[1,2,3-de]quinoxalin-2,5(3H,6H)-dione] returned an ED50 in test [1] of 0.9 mg/kg. The minimal effective dose in test [2] was found to be 1.56 mg/kg.

In turn, `CCN1C(=O)CN2C(=O)C(c3ccccc3)c3cccc1c32` (centres unmarked) [1-Ethyl-6-phenyl-1H-pyrrolo[1,2,3-de]quinoxalin-2,5(3H,6H)-dione] gave an ED50 in test [1] of 33 mg/kg. Further, in test [2], the minimal effective dose was found to be 100 mg/kg.

Take `CCCN1C(=O)CN2C(=O)C(c3ccccc3)c3cccc1c32` (centres unmarked) [1-n-Propyl-6-phenyl-1H-pyrrolo[1,2,3-de]quinoxalin-2,5(3H,6H)-dione]: the 50% effect level in test [1] (ED50) was put at a dose of 47.5 mg/kg.

`COc1cc2c3c(c1)C(c1ccccc1)C(=O)N3CC(=O)N2` (centres unmarked) [6-phenyl-8-methoxy-1H-pyrrolo[1,2,3-de]quinoxalin-2,5(3H,6H)-dione] gave a median effective dose (ED50) in test [1] of 45 mg/kg. Also, the minimal effective dose in test [2] was determined as 6.25 mg/kg.

On to `O=C1CN2C(=O)C(c3ccccc3)c3c2c(cc2ccccc32)N1` (centres unmarked) [6-phenyl-1H-benzo[g]pyrrolo[1,2,3-de]quinoxalin-2,5(3H,6H)-dione], for which the “Inhibition at 50 mg/kg dose” value in test [1] was 42%.

For `CN1C(=O)CN2C(=O)C(c3ccccc3)c3cccc1c32` (centres unmarked) [1-Methyl-6-phenyl-1H-pyrrolo 1,2,3-de]quinoxalin-2,5(3H,6H)-dione], in test [1], the 50% effective dose (ED50) amounted to 4.4 mg/kg. In addition, the minimal effective dose in test [2] was determined as 3.12 mg/kg.

Consider `O=C1CN2C(=O)C(c3ccc(Cl)cc3)c3cccc(c32)N1` (centres unmarked) [6-(4-chlorophenyl)-1H-pyrrolo[1,2,3-de]-quinoxalin-2,5(3H,6H)-dione], for which the “Inhibition at 50 mg/kg dose” value in test [1] is recorded as 48%.

For the compound `O=C1C(c2ccccc2)c2cccc3c2N1CCN3` (centres unmarked) [2,3-dihydro-6-phenyl-1H-pyrrolo[1,2,3-de]quinoxalin-5(6H)-one], in test [1], it took a dose of 7.9 mg/kg to reach the 50% effect level (ED50). For the same compound, in test [2], the minimal effective dose is 100 mg/kg.

The compound `CCC1C(=O)Nc2cccc3c2N1C(=O)C3c1ccccc1` (centres unmarked) [6-phenyl-3-ethyl-1H-pyrrolo[1,2,3-de]quinoxalin-2,5(3H,6H)-dione] displayed an ED50 in test [1] of 1 mg/kg. In addition, in test [2], the minimal effective dose was determined as 50 mg/kg.

Take `O=C1CN2C(=O)C(c3ccccc3)c3cc(Cl)cc(c32)N1` (centres unmarked) [6-phenyl-8-chloro-1H-pyrrolo[1,2,3-de]quinoxalin-2,5(3H,6H)-dione]: in test [1], the “Inhibition at 50 mg/kg dose” value amounted to 50%. In addition, the minimal effective dose in test [2] worked out at 100 mg/kg.

In test [1], `O=C1CN2C(=O)C(c3ccc(F)cc3)c3cccc(c32)N1` (centres unmarked) [6-(p-fluoro)phenyl-1H-pyrrolo[1,2,3-de]quinoxalin-2,5 (3H,6H)-dione] gave an ED50 of 7.7 mg/kg. Further, the minimal effective dose in test [2] was found to be 12.5 mg/kg.

On to `O=C1CCN2C(=O)C(c3ccccc3)c3cccc(c32)N1` (centres unmarked) [3,4-DIHYDRO-7-PHENYL-1H-PYRROLO[ 1,2,3-ef]-BENZO-[ f]DIAZEPINE-2,6(1H,7H)-DIONE], for which it took a dose of 12 mg/kg to reach the 50% effect level in test [1] (ED50). Also, the minimal effective dose in test [2] turned out to be 50 mg/kg.
